Assay results: PubChem BioAssay (NCI)
Several values for one entry are separate records, joined by “and”; a condition that tells them apart may be missing. Equal entries are not always repeated.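 1) Cells in 96-well plates. 2) Compound, 48 h, 5 concentrations. 3) Linear interpolation between surrounding doses. 4) Unreached endpoint = highest concentration. Here, GI50 denotes the concentration required for 50% inhibition of growth. TGI: total growth inhibition.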

Legend:
Experiment in all cases: NCI-60 cell line screen, 48 h
IGROV1 ovarian = system: IGROV1 ovarian
CAKI-1 renal = system: CAKI-1 renal
SK-MEL-2 melanoma = system: SK-MEL-2 melanoma
T-47D breast = system: T-47D breast
LOX IMVI melanoma = system: LOX IMVI melanoma
MALME-3M melanoma = system: MALME-3M melanoma
786-0 renal = system: 786-0 renal
NCI-H460 lung = system: NCI-H460 lung
SNB-75 CNS = system: SNB-75 CNS
HL-60(TB) leukemia = system: HL-60(TB) leukemia

Structure (SMILES)	GI50 (IGROV1 ovarian) [µM]	TGI (IGROV1 ovarian)	GI50 (CAKI-1 renal) [µM]	TGI (CAKI-1 renal)	GI50 (SK-MEL-2 melanoma) [µM]	TGI (SK-MEL-2 melanoma)	GI50 (T-47D breast) [µM]	TGI (T-47D breast) [µM]	GI50 (LOX IMVI melanoma) [µM]	TGI (LOX IMVI melanoma)	GI50 (MALME-3M melanoma) [µM]	TGI (MALME-3M melanoma)	GI50 (786-0 renal) [µM]	TGI (786-0 renal)	GI50 (NCI-H460 lung) [µM]	TGI (NCI-H460 lung)	GI50 (SNB-75 CNS) [µM]	TGI (SNB-75 CNS)	GI50 (HL-60(TB) leukemia) [µM]	TGI (HL-60(TB) leukemia)
C=C1C(=O)O[C@H]2[C@H]1CC/C(COC(=O)NCCc1c[nH]c3ccc(OC)cc13)=C\CC[C@@]1(C)O[C@@H]21	2.08	4.7 µM	1.49	3.32 µM	1.84	4.18 µM	1.81	4.53	1.32	2.78 µM	1.91	3.9 µM	1.46	3.47 µM	6.49	25.2 µM	10	21.7 µM		
CC(=O)OCC1OC(OC2CC3C(C)(C)C(O)CC[C@]3(C)C3CCC45CC4(CC[C@H]5C(C)CC(O)C4OC4(C)C)[C@]23C)C(O)C(O)C1O (stereo not given in full)	5.91	7.61 µM and 15.6 µM	19.6	17.1 µM and 34.4 µM	2.46	12.1 µM and 8.67 µM			1.52	12.1 µM and 3.17 µM	4.52	16.5 µM and 20.8 µM	5.67	14.9 µM and 18.9 µM	5.08	16.8 µM and 20.4 µM	13.7	15 µM and 26.6 µM	1.73	3.67 µM and 4.18 µM
O=C(C(=O)N1CC2C=CC1CC2)c1c[nH]c2ccccc12 (stereo not given)		> 100 µM		> 100 µM		> 100 µM				> 100 µM		> 100 µM		> 100 µM		> 100 µM		> 100 µM		> 100 µM
Cc1ccc(-c2cc(C3=CC(=O)C=CC3=O)n(-c3ccc(S(N)(=O)=O)cc3)n2)cc1	> 100	> 100 µM	52.3	> 100 µM	> 100	> 100 µM	46.8	> 100	31.2	> 100 µM			26.6	58.8 µM	68.2	> 100 µM			37.3	> 100 µM
C1OC1CO[C@@H]1CO[C@H]2[C@@H]1OC[C@H]2OCC1CO1 (stereo not given in full)		> 100 µM		> 100 µM		> 100 µM				> 100 µM		> 100 µM		> 100 µM		> 100 µM		> 100 µM		> 100 µM
Cc1ccc(SC2=CC(=O)c3nc4ccccc4c4ccnc2c34)cc1	> 37.9	> 58.5 µM	25.5	63.8 µM	21.2	58.2 µM	24.3	47.2	28.5	> 100 µM	46.7	> 69.5 µM	24.5	> 58.1 µM	61.4	> 100 µM	39.8	> 100 µM		
O=C1c2c(n(Cc3ccccc3)c(=O)n2Cc2ccccc2)C(=O)N1Cc1ccccc1		> 100 µM		> 100 µM		> 100 µM				> 100 µM		> 100 µM		> 100 µM		> 100 µM		> 100 µM		> 100 µM
CCN(CCCl)CCCNc1c2ccccc2nc2ccc(OC)cc12		1510 µM	133		587					0.669 µM	754		102		129		532		175	
c1ccc2c(c1)[nH]c1cnc3c4cccnc4[nH]c3c12		40.1 µM		33.7 µM						45 µM		49 µM		31.7 µM		50.1 µM		32.6 µM		35.5 µM
COc1ccc(-c2ccc(-c3ccc(-c4ccc(C(=N)N)cc4)s3)s2)cc1OC	0.937	3.78 µM	15.1	30.4 µM	19.7	43.5 µM	3.09	31.8			13	49.6 µM	18.4	49.7 µM			14.4	31 µM	7.47	28.1 µM
CN1CCN(Cc2ccc(NC(=O)c3ccc(C#Cc4c(N)ncc5ccc(F)cc45)cc3)cc2C(F)(F)F)CC1	1.13	2.56 µM	1.97	7.55 µM	1.08	2.04 µM	0.878	1.85	0.929	1.69 µM	0.945	1.8 µM	0.924	1.73 µM	1.06	2.02 µM			0.935	2.62 µM
O=Nc1ccc2ccccc2c1O	2.07	5.91 µM	3.14	19.3 µM	2.34	5.29 µM	2.75	6.08	1.68	5.71 µM	3.39	8.51 µM	18.4	32.8 µM	15.5	36.6 µM	2.61	15.7 µM		
CC#CC1/C(=C\C(=O)OC)CCCC1O (stereo not given)				> 100 µM		> 100 µM						> 100 µM		> 100 µM		> 100 µM		> 100 µM		> 100 µM
CN(C)C(=O)c1cc2cnc(Nc3ccc(-c4csc5c(=O)cc(N6CCOCC6)oc45)cc3)nc2n1C1CCCC1			0.152	1.15 µM	0.236	0.679 µM	0.171	> 100	0.112	0.353 µM			0.162	4.25 µM	0.209	1.18 µM	0.085	0.373 µM	0.0877	0.698 µM
CCCCOC(=O)NC(=O)c1cn(CCSCCOC(=O)NCCCCCCNC(=O)OCCSCCn2cc(C(=O)NC(=O)OCCCC)c(=O)[nH]c2=O)c(=O)[nH]c1=O		> 100 µM				> 100 µM				> 100 µM		76.6 µM		> 100 µM		> 100 µM		> 100 µM		> 100 µM
CCOC(=O)C1SC(=Nc2ccc(Cl)c(Cl)c2)N=C1C (stereo not given)		> 100 µM		> 100 µM		> 100 µM				63.9 µM		> 100 µM		31.3 µM		> 100 µM		58.9 µM		59.7 µM
CC(=O)CCCCO		> 100 µM		> 100 µM		> 100 µM				> 100 µM		> 100 µM		> 100 µM		> 100 µM		> 100 µM		> 100 µM
